According to PubChem BioAssay AID1259407 (Chemical Carcinogenesis Research Information System (CCRIS), 2018):
The source made the active and inactive calls. No rule for the calls is given here.

System: CCRIS mutagenicity, Ames/micronucleus/aberration tests
Assay: CCRIS mutagenicity studies
[1] = Test System: AMES SALMONELLA TYPHIMURIUM, Strain/Indicator: TA98, Metabolic Activation: NONE, Method: PREINCUBATION

Measured: mutagenic call

O=C(Cl)c1cccc(Cl)c1
active: Test System: AMES SALMONELLA TYPHIMURIUM, Strain/Indicator: TA98, Metabolic Activation: RAT LIVER S-9, PCB, Method: PREINCUBATION active; positive | Test System: AMES SALMONELLA TYPHIMURIUM, Strain/Indicator: TA100, Metabolic Activation: RAT LIVER S-9, PCB, Method: PREINCUBATION active; positive | Test System: AMES SALMONELLA TYPHIMURIUM, Strain/Indicator: TA104, Metabolic Activation: RAT LIVER S-9, PCB, Method: PREINCUBATION active; positive | Test System: E.COLI, Strain/Indicator: WP2 UVRA, Metabolic Activation: RAT LIVER S-9, PCB, Method: PREINCUBATION active; positive
inactive: [1] inactive; negative | Test System: AMES SALMONELLA TYPHIMURIUM, Strain/Indicator: TA100, Metabolic Activation: NONE, Method: PREINCUBATION inactive; negative | Test System: AMES SALMONELLA TYPHIMURIUM, Strain/Indicator: TA104, Metabolic Activation: NONE, Method: PREINCUBATION inactive; negative | Test System: E.COLI, Strain/Indicator: WP2 UVRA, Metabolic Activation: NONE, Method: PREINCUBATION inactive; negative

CC1(C)CCC[C@]2(C)C(C=O)C(C=O)=CC[C@@H]12 (stereo partly drawn)
inactive: Test System: AMES SALMONELLA TYPHIMURIUM, Strain/Indicator: TA98, Metabolic Activation: RAT, LIVER, S-9, AROCLOR 1254, Method: STANDARD PLATE inactive; negative | Test System: AMES SALMONELLA TYPHIMURIUM, Strain/Indicator: TA100, Metabolic Activation: NONE, Method: STANDARD PLATE inactive; negative | Test System: AMES SALMONELLA TYPHIMURIUM, Strain/Indicator: TA2637, Metabolic Activation: NONE, Method: STANDARD PLATE inactive; negative | Test System: CHINESE HAMSTER V-79, Strain/Indicator: V-79/6-THIOGUANINE (HGPRT), Metabolic Activation: NONE inactive; negative

COC(=O)N/N=C/c1c[n+]([O-])c2ccccc2[n+]1[O-]
active: [1] active; positive | Test System: AMES SALMONELLA TYPHIMURIUM, Strain/Indicator: TA98, Metabolic Activation: S-9, Method: PREINCUBATION active; positive | Test System: E. COLI, Strain/Indicator: WP2 UVRA (PKM101), Metabolic Activation: NONE active; positive | Test System: E. COLI, Strain/Indicator: WP2 UVRA (PKM101), Metabolic Activation: S-9 active; positive

CC(C)N(CC(O)COc1cccc2ccccc12)N=O (stereo not drawn)
active: Test System: UDS HUMAN HEPATOCYTES, Strain/Indicator: THY INCORP, Metabolic Activation: NONE, Method: AUTORADIOGRAPHY active; positive | Test System: UDS RAT HEPATOCYTES, Strain/Indicator: THY INCORP, Metabolic Activation: NONE, Method: AUTORADIOGRAPHY active; positive
